From patent US20140323501A1, “AMINO-PROPYLENE-GLYCOL DERIVATIVES, PREPARATION METHOD AND PHARMACEUTICAL COMPOSITION AND USE THEREOF” (INSTITUTE OF MATERIA MEDICA, CHINESE ACADEMY OF MEDICAL …, priority 2011, published 2014)

Assays:
[1] = system: lymphocyte proliferation / cytotoxic T lymphocytes; conditions: MLR and CTL; background, Fujita et al.; cited from earlier work
[2] = system: SD rat heart rate; experiment: Effect of S1P1 receptor agonists on rat heart rate; assay type: in vivo; set-up: heart rate 0: unit not given beside the values; conditions: for HR delta %: (lowest heart rate postdose − pre-administration)/pre-administration; for heart rate 0.5 h / heart rate 1 h / heart rate 3 h / heart rate 6 h / heart rate 8 h / heart rate 24 h / heart rate pre-administration / heart rate 0: intragastric; for heart rate pre-administration: before administration; for heart rate 0: time 0, before administration
[3] = system: SD rat peripheral blood lymphocyte counts; experiment: Effect of S1P1 receptor agonists on rat vein (peripheral) blood lymphocyte counts; assay type: in vivo; conditions: 10 mg/Kg intragastric; for LYM 0 h: before administration; for LYM 24 h: 24 h after administration; for compared with 0 h (%) 1 h / compared with 0 h (%) 2 h / compared with 0 h (%) 4 h / compared with 0 h (%) 8 h / compared with 0 h (%) 12 h / compared with 0 h (%) 24 h: lymphocyte count change vs 0 h; for Δ %: largest decrease of lymphocyte count vs 0 h
Method: 10 mg of drugs were measured and placed in a mortar. After 4 mL of 5‰ CMC-Na were added, homogenous suspension was prepared in the mortar (one drop of twain-80 was added to help dissolving). Dosage: 10 mg/Kg, dose volume: 0.4 mL/100 g, intragastric administration.
Every medicated group was assigned three rats.
After the experimental animals stable in the clean environment for 24 h, 10 μL of blood was withdrawn via tail vein and diluted into 2 mL of diluents quickly. […] Then the prepared drugs were administered intragastrically to the animals. […] The animals were killed after 24 h.

[4] = Table 2, 0.5 h after administration
[5] = Table 2, 1 h after administration
[6] = Table 2, 3 h after administration
[7] = Table 2, 6 h after administration
[8] = Table 2, 8 h after administration
[9] = Table 2, 24 h after administration
[10] = Table 1, 1 h after administration
[11] = Table 1, 2 h after administration
[12] = Table 1, 4 h after administration
[13] = Table 1, 8 h after administration
[14] = Table 1, 12 h after administration

SMILES | HR delta % ([2]; Table 2) [%] | heart rate 0.5 h [2, 4] | heart rate 1 h [2, 5] | Δ % = the percentage of change of rat heart rate before and after administration ([2]; Table 4) [%] | heart rate 0.5 h ([2]; Table 4, 0.5 h) | heart rate 1 h ([2]; Table 4, 1 h) | heart rate 3 h ([2]; Table 4, 3 h) | heart rate 6 h ([2]; Table 4, 6 h) | heart rate 8 h ([2]; Table 4, 8 h) | heart rate 24 h ([2]; Table 4, 24 h) | heart rate 0 ([2]; Table 4) | LYM 0 h ([3]; Table 3) | LYM 1 h ([3]; Table 3, 1 h) | LYM 2 h ([3]; Table 3, 2 h) | LYM 4 h ([3]; Table 3, 4 h) | LYM 6 h ([3]; Table 3) | LYM 8 h ([3]; Table 3, 8 h) | LYM 12 h ([3]; Table 3, 12 h) | LYM 23 h ([3]; Table 3) | Δ % ([3]; Table 3) [%] | other results
CCCCCCC(=O)CCCCCC/C=C/C[C@@H](O)[C@H](O)[C@@](N)(CO)C(=O)O [ISP-I, myriocin] | – | – | – | – | – | – | – | – | – | – | – | – | – | – | – | – | – | – | – | – | activity relative to cyclosporine [1]: 10 fold
CCCCc1ccc(Oc2ccc(CCC(N)(CO)CO)cc2)cc1 [Syl926] | 9.60 | 361.91 | 346.80 | – | – | – | – | – | – | – | – | – | – | – | – | – | – | – | – | – | heart rate 3 h [2, 6]: 327.09; heart rate 6 h [2, 7]: 340.82; heart rate 8 h [2, 8]: 318.55; heart rate 24 h [2, 9]: 354.80; heart rate pre-administration ([2]; Table 2): 352.85; LYM 0 h ([3]; Table 1): 5.17 ± 2.12 × 10^9/L; LYM 1 h [3, 10]: 3.40 ± 0.20 × 10^9/L; LYM 2 h [3, 11]: 2.57 ± 0.84 × 10^9/L; LYM 4 h [3, 12]: 2.33 ± 0.90 × 10^9/L; LYM 8 h [3, 13]: 1.40 ± 0.79 × 10^9/L; LYM 12 h [3, 14]: 1.33 ± 0.42 × 10^9/L; LYM 24 h ([3]; Table 1): 1.37 ± 0.31 × 10^9/L; compared with 0 h (%) 1 h ([3]; Table 1, 1 h): 34.19%; compared with 0 h (%) 2 h ([3]; Table 1, 2 h): 50.32%; compared with 0 h (%) 4 h ([3]; Table 1, 4 h): 54.84%; compared with 0 h (%) 8 h ([3]; Table 1, 8 h): 72.90%; compared with 0 h (%) 12 h ([3]; Table 1, 12 h): 74.19%; compared with 0 h (%) 24 h ([3]; Table 1): 73.55%
CCc1nc(-c2ccc(Oc3ccc(CCC(N)(CO)CO)cc3)cc2)co1 [Syl934] | 2.4 | 376.00 | 369.10 | – | – | – | – | – | – | – | – | – | – | – | – | – | – | – | – | – | heart rate 3 h [2, 6]: 337.86; heart rate 6 h [2, 7]: 338.09; heart rate 8 h [2, 8]: 362.55; heart rate 24 h [2, 9]: 365.89; heart rate pre-administration ([2]; Table 2): 346.00; LYM 0 h ([3]; Table 1): 4.17 ± 0.40 × 10^9/L; LYM 1 h [3, 10]: 3.60 ± 0.69 × 10^9/L; LYM 2 h [3, 11]: 2.47 ± 0.23 × 10^9/L; LYM 4 h [3, 12]: 2.87 ± 0.55 × 10^9/L; LYM 8 h [3, 13]: 1.83 ± 0.68 × 10^9/L; LYM 12 h [3, 14]: 1.17 ± 0.49 × 10^9/L; LYM 24 h ([3]; Table 1): 1.33 ± 0.32 × 10^9/L; compared with 0 h (%) 1 h ([3]; Table 1, 1 h): 13.60%; compared with 0 h (%) 2 h ([3]; Table 1, 2 h): 40.80%; compared with 0 h (%) 4 h ([3]; Table 1, 4 h): 31.20%; compared with 0 h (%) 8 h ([3]; Table 1, 8 h): 56.00%; compared with 0 h (%) 12 h ([3]; Table 1, 12 h): 72.00%; compared with 0 h (%) 24 h ([3]; Table 1): 68.00%
CC(C)c1nc(-c2ccc(Oc3ccc(CCC(N)(CO)CO)cc3)cc2)co1 [Syl935] | 15.90 | 387.18 | 405.20 | – | – | – | – | – | – | – | – | – | – | – | – | – | – | – | – | – | heart rate 3 h [2, 6]: 384.20; heart rate 6 h [2, 7]: 352.44; heart rate 8 h [2, 8]: 373.33; heart rate 24 h [2, 9]: 398.50; heart rate pre-administration ([2]; Table 2): 419.00; LYM 0 h ([3]; Table 1): 4.77 ± 0.21 × 10^9/L; LYM 1 h [3, 10]: 3.73 ± 1.23 × 10^9/L; LYM 2 h [3, 11]: 2.70 ± 1.05 × 10^9/L; LYM 4 h [3, 12]: 2.77 ± 0.72 × 10^9/L; LYM 8 h [3, 13]: 2.10 ± 0.36 × 10^9/L; LYM 12 h [3, 14]: 1.17 ± 0.31 × 10^9/L; LYM 24 h ([3]; Table 1): 1.73 ± 0.29 × 10^9/L; compared with 0 h (%) 1 h ([3]; Table 1, 1 h): 21.68%; compared with 0 h (%) 2 h ([3]; Table 1, 2 h): 43.36%; compared with 0 h (%) 4 h ([3]; Table 1, 4 h): 41.96%; compared with 0 h (%) 8 h ([3]; Table 1, 8 h): 55.94%; compared with 0 h (%) 12 h ([3]; Table 1, 12 h): 75.52%; compared with 0 h (%) 24 h ([3]; Table 1): 63.64%
NC(CO)(CO)CCc1ccc(Oc2ccc(-c3coc(C4CC4)n3)cc2)cc1 [Syl955] | – | – | – | 21.72 | 373.00 | 384.75 | 338.25 | 335.50 | 351.50 | 353.90 | 428.63 | 7.40 ± 2.18 ×10^9/L | 6.27 ± 0.78 ×10^9/L | 6.87 ± 0.90 ×10^9/L | 6.83 ± 1.26 ×10^9/L | 8.33 ± 2.70 ×10^9/L | 6.53 ± 1.42 ×10^9/L | 2.90 ± 0.95 ×10^9/L | 4.93 ± 1.07 ×10^9/L | 60.81 | –
CCCc1nc(-c2ccc(Oc3ccc(C(O)CC(N)(CO)CO)cc3)cc2)co1 (centres unmarked) [Syl961] | – | – | – | 11.64 | 382.56 | 364.33 | 379.45 | 344.36 | 363.08 | 363.27 | 389.75 | 7.90 ± 2.46 ×10^9/L | 8.57 ± 2.55 ×10^9/L | 6.40 ± 0.98 ×10^9/L | 6.33 ± 2.25 ×10^9/L | 5.83 ± 1.88 ×10^9/L | 3.93 ± 1.78 ×10^9/L | 3.67 ± 1.68 ×10^9/L | 2.63 ± 0.31 ×10^9/L | 66.67 | –
CC(C)c1nc(-c2ccc(Oc3ccc(C(O)CC(N)(CO)CO)cc3)cc2)co1 (centres unmarked) [Syl962] | – | – | – | 13.58 | 397.13 | 374.88 | 358.58 | 343.63 | 337.00 | 331.89 | 390.00 | 8.03 ± 1.15 ×10^9/L | 5.60 ± 0.90 ×10^9/L | 5.83 ± 1.54 ×10^9/L | 6.27 ± 1.42 ×10^9/L | 3.63 ± 0.38 ×10^9/L | 2.67 ± 0.67 ×10^9/L | 3.10 ± 0.56 ×10^9/L | 2.43 ± 0.59 ×10^9/L | 69.70 | –
NC(CO)(CO)CC(O)c1ccc(Oc2ccc(-c3coc(C4CC4)n3)cc2)cc1 (centres unmarked) [Syl963] | – | – | – | 4.58 | 388.38 | 378.36 | 377.36 | 366.88 | 362.50 | 369.05 | 395.50 | 6.90 ± 0.95 ×10^9/L | 4.67 ± 1.50 ×10^9/L | 5.07 ± 2.10 ×10^9/L | 6.67 ± 0.81 ×10^9/L | 4.57 ± 1.29 ×10^9/L | 4.13 ± 0.84 ×10^9/L | 4.20 ± 2.52 ×10^9/L | 2.43 ± 0.91 ×10^9/L | 64.73 | –
CCc1nc(-c2ccc(Sc3ccc(CCC(N)(CO)CO)cc3)cc2)co1 [Syl974] | – | – | – | 4.81 | 382.63 | 388.00 | 396.19 | 368.56 | 364.11 | 363.13 | 381.50 | 6.55 ± 0.21 ×10^9/L | 4.63 ± 0.61 ×10^9/L | 5.27 ± 1.27 ×10^9/L | 5.20 ± 0.61 ×10^9/L | 5.77 ± 0.40 ×10^9/L | 4.67 ± 0.61 ×10^9/L | 2.23 ± 0.59 ×10^9/L | 4.47 ± 1.36 ×10^9/L | 65.9 | –
